Results on two compounds are retold here after ChEMBL document CHEMBL4364295, “Discovery of a First-in-Class Receptor Interacting Protein 2 (RIP2) Kinase Specific Clinical Candidate, 2-((4-(Benzo[d]thiazol-5-ylamino)-6-(tert-butylsulfonyl)quinazolin-7-yl)oxy)ethyl Dihydrogen Phosphate, for the Treatment of Inflammatory Diseases” (J Med Chem, 2019).

A short description of series [1]: Unbound fraction in dog blood. The series is classed as ADME, tissue-based, Canis lupus familiaris.
Series [2] deals with T1, Toll-like receptor 9 (Homo sapiens, UniProt Q9NR96).
T1 sequence (Q9NR96 whole entry): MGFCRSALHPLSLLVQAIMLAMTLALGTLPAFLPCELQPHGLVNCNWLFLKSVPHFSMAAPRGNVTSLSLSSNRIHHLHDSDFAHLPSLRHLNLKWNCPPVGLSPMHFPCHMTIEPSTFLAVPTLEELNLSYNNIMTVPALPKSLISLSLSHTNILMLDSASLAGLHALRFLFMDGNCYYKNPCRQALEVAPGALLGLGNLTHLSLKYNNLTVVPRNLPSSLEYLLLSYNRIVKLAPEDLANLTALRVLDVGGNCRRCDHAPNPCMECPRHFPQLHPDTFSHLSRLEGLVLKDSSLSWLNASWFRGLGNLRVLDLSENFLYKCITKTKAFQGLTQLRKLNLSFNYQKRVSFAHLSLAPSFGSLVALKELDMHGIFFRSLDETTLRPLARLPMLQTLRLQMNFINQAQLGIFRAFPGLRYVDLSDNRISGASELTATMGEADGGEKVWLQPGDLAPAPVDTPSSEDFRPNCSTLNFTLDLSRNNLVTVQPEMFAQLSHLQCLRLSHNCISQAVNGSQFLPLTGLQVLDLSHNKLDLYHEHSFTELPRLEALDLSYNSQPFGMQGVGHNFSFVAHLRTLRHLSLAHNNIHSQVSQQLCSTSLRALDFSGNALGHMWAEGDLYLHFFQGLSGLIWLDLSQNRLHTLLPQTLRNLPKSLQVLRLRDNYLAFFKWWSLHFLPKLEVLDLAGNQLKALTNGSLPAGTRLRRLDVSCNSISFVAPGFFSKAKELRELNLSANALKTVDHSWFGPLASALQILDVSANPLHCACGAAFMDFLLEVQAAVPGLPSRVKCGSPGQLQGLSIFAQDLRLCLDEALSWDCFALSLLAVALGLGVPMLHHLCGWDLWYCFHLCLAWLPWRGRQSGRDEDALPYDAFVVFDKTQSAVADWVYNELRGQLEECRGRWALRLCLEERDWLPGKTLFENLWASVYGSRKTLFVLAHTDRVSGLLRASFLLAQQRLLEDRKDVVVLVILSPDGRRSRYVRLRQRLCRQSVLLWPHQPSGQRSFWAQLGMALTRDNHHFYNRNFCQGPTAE
Briefly: Inhibition of TLR9 in human monocytes assessed as reduction in CpG-ODN-induced IL8 production. The series is classed as cell-based.

Series [3] addresses T2, Ephrin type-A receptor 6 (Homo sapiens) (UniProt Q9UF33).
T2 sequence (whole entry): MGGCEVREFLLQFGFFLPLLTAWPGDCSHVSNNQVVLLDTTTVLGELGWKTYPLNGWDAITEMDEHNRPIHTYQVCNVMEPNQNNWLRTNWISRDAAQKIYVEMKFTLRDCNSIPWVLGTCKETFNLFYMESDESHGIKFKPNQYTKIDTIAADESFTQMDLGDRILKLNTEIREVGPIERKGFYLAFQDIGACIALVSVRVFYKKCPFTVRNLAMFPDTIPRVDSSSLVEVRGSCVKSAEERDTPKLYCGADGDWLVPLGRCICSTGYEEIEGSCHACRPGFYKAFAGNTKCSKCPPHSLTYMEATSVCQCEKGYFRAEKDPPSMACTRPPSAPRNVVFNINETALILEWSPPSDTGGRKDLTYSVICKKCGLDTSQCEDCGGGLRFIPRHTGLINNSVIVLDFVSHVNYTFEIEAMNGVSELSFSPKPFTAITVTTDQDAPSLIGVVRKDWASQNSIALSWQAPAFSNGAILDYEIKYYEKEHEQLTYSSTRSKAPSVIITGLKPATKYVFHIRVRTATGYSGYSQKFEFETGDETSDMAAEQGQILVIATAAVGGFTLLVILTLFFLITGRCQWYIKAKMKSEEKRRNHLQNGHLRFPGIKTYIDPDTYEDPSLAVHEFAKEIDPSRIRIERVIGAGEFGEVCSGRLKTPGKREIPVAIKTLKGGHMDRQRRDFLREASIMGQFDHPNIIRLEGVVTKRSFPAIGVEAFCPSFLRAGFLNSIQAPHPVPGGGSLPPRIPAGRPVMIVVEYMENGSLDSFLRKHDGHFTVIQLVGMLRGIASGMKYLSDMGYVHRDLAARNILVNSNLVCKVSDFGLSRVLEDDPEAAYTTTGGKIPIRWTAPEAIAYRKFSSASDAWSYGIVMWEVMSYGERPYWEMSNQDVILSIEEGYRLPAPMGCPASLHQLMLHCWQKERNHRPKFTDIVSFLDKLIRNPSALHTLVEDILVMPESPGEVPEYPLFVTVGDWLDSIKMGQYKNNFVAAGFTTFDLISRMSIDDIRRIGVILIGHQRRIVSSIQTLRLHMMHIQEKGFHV
Briefly: Inhibition of human EPHA6 at 1 uM using poly[Glu:Tyr] (4:1) as substrate in presence of [gamma-33P]ATP relative to control.

A short description of series [4]: AUC in Sprague-Dawley rat at 2 mg/kg, po by LC/MS/MS analysis. The series is classed as ADME, organism-based. Particulars: in vivo; call rule not given here.
Series [5] can be described thus: Volume of distribution at steady state in Gottingen minipig at 1 mg/kg, po or 0.4 mg/kg, iv by LC/MS/MS analysis. The series is classed as ADME, organism-based, Sus scrofa. The note with it: pig, in vivo, read-out: Vdss.
A short description of series [6]: Terminal half life in Gottingen minipig at 1 mg/kg, po or 0.4 mg/kg, iv by LC/MS/MS analysis. The series is classed as ADME, organism-based, Sus scrofa. Particulars: pig, in vivo, read-out: beta t1/2 (converted).
The nature of series [7]: Volume of distribution at steady state in Beagle dog at 2 mg/kg, po or 1.1 mg/kg, iv by LC/MS/MS analysis. The series is classed as ADME, organism-based, Canis lupus familiaris. Particulars: in vivo, read-out: Vdss.
Series [8] deals with Intestinal mucosa. Briefly: Antiinflammatory activity in crohn's disease patient derived inflamed intestinal mucosa assessed as reduction in IL1beta production measured after overnight incubation by immunoassay. The format is functional, tissue-based. The note with it: Homo sapiens.
The nature of series [9]: Cmax in Gottingen minipig assessed as 2-((4-(Benzo[d]thiazol-5-ylamino)-6-(tert-butylsulfonyl)quinazolin-7-yl)oxy)ethanol level at 1 mg/kg, po by LC/MS/MS analysis. The format is ADME, organism-based, Sus scrofa. More on the design: dose 1 mg/kg, route oral. The note with it: pig, in vivo.
Series [10] is described as follows: Prodrug conversion in Sprague-Dawley rat gut assessed as 2-((4-(Benzo[d]thiazol-5-ylamino)-6-(tert-butylsulfonyl)quinazolin-7-yl)oxy)ethanol formation at 2 mg/kg, po or 0.5 mg/kg, iv measured at 15 to 120 mins post dose. The series is classed as ADME, organism-based. The note with it: in vivo.
The nature of series [11]: Drug uptake in Beagle dog systemic circulation at 2 mg/kg, po or 0.9 mg/kg, iv by LC/MS/MS analysis. The series is classed as ADME, organism-based, Canis lupus familiaris. The note with it: in vivo.
Series [12] can be described thus: Prodrug conversion in mouse blood assessed as 2-((4-(Benzo[d]thiazol-5-ylamino)-6-(tert-butylsulfonyl)quinazolin-7-yl)oxy)ethanol formation at 0.25 to 145 mg/kg, po administered twice daily via gavage for 8 days. The note with it: in vivo, 192 h. The format is ADME, organism-based.
Series [13] is described as follows: Cmax in Sprague-Dawley rat assessed as 2-((4-(Benzo[d]thiazol-5-ylamino)-6-(tert-butylsulfonyl)quinazolin-7-yl)oxy)ethanol level at 2 mg/kg, po by LC/MS/MS analysis. The format is ADME, organism-based. More on the design: dose 2 mg/kg, route oral. Particulars: in vivo.
Series [14] is described as follows: Drug uptake in Han Wistar rat brain at 2 mg/kg, iv administered as infusion for 4 hrs. The format is ADME, organism-based. The note with it: in vivo.

Some results are limits rather than exact numbers.

One may read the fraction unbound as free concentration divided by total concentration. A lower fraction unbound goes with little free substance. Broadly, the IC50 is the concentration that gives 50% inhibition. By inhibition is commonly meant the change of the read-out against control, counted positive when it falls. One may read the AUC as the area under the concentration-time curve, a measure of exposure. The low end stands for low exposure, the high end for high exposure. `CC(C)(C)S(=O)(=O)c1cc2c(Nc3ccc4scnc4c3)ncnc2cc1OCCO` had a free fraction (fraction unbound) in series [1] of 0.089. The values for the IC50 in series [2] and in series [8] were greater than 10000 nM and 10 nM, respectively. The inhibition in [3] is 70 to 90%. For the same compound, in series [4], the AUC amounted to 460 ng·h/mL. For the same compound, the Vd is 1.8 L/kg in [5] and 2.6 L/kg in [7]. For the same compound, in series [6], the half-life is 1.9 h. Further, the Activity result in series [8] is “Dose-dependent effect”.

Broadly, the Cmax is the maximum level reached in the sampled fluid or tissue. With `CC(C)(C)S(=O)(=O)c1cc2c(Nc3ccc4scnc4c3)ncnc2cc1OCCOP(=O)(O)O.[CaH2]`, the Cmax in series [9] came to 340 ng/mL; in series [13], 170 ng/mL. The Drug metabolism result in series [10] and in series [12] was “Metabolite_Detected” each time. Further, the Drug uptake result in [11] and in series [14] was “Not Active” throughout.
